What follows are compounds tested against T1, Human (6-His) Sortilin (Homo sapiens, UniProt Q99523) (assay: Human Sortilin GCI (Grating-Coupled Interferometry) binding assay). Conditions: Creoptix WAVE-RAPID, single concentration, immobilised Human (6-His) Sortilin, 1:1 kinetic binding model; read-out: h-Sortilin GCI KD.
T1 construct: 6-His; purchased RnD Systems
T1 sequence (Q99523 78-755 limits assumed): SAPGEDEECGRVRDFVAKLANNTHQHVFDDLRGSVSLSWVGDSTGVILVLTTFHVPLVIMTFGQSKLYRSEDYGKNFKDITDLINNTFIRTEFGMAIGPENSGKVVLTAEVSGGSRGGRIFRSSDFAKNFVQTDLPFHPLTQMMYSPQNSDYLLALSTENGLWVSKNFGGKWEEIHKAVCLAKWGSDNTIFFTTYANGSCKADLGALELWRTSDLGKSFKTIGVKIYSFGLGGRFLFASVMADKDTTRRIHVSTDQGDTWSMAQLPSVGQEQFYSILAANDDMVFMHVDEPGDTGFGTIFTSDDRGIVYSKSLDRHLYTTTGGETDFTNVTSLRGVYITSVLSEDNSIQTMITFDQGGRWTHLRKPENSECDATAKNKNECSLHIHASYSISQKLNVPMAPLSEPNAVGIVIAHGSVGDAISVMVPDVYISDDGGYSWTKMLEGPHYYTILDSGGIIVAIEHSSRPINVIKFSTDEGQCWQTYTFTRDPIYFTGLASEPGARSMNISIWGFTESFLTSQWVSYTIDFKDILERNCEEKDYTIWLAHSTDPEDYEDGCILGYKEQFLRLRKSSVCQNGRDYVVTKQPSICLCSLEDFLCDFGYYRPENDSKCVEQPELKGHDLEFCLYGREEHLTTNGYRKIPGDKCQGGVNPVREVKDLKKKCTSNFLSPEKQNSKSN
Method: The exemplified compounds of the invention were tested in a Grating-Coupled Interferometry (GCI) Sortilin binding assay. The Equilibrium dissociation constant (KD) is a measure of the propensity of a complex (i.e: a ligand and receptor) to dissociate and is used to describe the affinity of an interaction between the constituents of the complex (i.e: a ligand and receptor). The skilled person will recognise that the lower the KD value, the less of the compound needed to achieve the desired effect, and as a result, the chances of undesirable off-target effects are reduced.
Compound affinity was determined by measuring the association and dissociation of compounds to Human (6-His) Sortilin (RnD Systems) using a Creoptix Wave instrument (Creoptix-Malvern Panalytical). Both Human (6-His) Sortilin immobilisation and compound evaluation were performed in HBS-N running buffer: 10 mM HEPES pH 7.4, 150 mM NaCl, 1% DMSO-Cytiva which was filtered and degassed for 15 minutes before use.
A 4PCH WAVEchip (Creoptix-Malvern Panalytical) was conditioned prior to immobilisation using 0.2×HBS-N running buffer with 0.1 M Borate pH 9.0, 1 M NaCl (Xantec Bioanalytics) injected across all flow cells. A buffer exchange was performed to 1×HBS-N running buffer and Human (6-His) Sortilin was immobilised in pH 5.0 Acetate solution (Cytiva) via amine coupling following EDC/NHS (Cytiva) surface activation and then passivated via injection of 50 mM Tris pH 7.4.
Compounds were tested in ‘WAVE-RAPID’ assays at a single concentration (usually: 1 μM, 10 µM or 100 µM) in time-response format (short pulses of increasing duration) using either ‘Weak-Binders’ (Settings: 400 μl/min flow rate, 40 Hz acquisition rate, 5 seconds association time and 20 seconds dissociation time) or ‘Intermediate Binders’ (Settings: 100 μl/min flow rate, 10 Hz acquisition rate, 25 seconds association time and 300 seconds dissociation time) settings. Which was deemed most appropriate was based upon the affinity and kinetics of the compound tested.
DMSO calibration was performed as per manufacturers requirements by injection of running buffer containing DMSO 0.5% above that of the running buffer DMSO (1.5% in that instance) every 20 cycles. All data was double referenced (blank and reference-channel subtracted) with KD values calculated by fitting to a ‘1:1 kinetic’ binding model using ‘WAVEcontrol’ software (Creoptix—Malvern Panalytical).
For `CC(=O)N[C@@H](C)C(=O)N[C@@](C)(CCC(C)(C)C)C(=O)O` [Example 2, (2S)-2-[(2S)-2-acetamidopropanamido]-2,5,5-trimethylhexanoic acid], the Kd was 4.64 µM.
For `CC(=O)N[C@@H](Cc1ccccc1)C(=O)N[C@@](C)(CCC(C)(C)C)C(=O)O` [Example 4, (2S)-2-[(2S)-2-acetamido-3-phenylpropanamido]-2,5,5-trimethylhexanoic acid], the Kd was 2 µM.
Compound `CC(=O)NCC(=O)N[C@@](C)(CCC(C)(C)C)C(=O)O` [Example 1, 2-(2-acetamidoacetamido)-2,5,5-trimethylhexanoic acid] has a Kd of 12.4 µM.
In the case of `CC[C@H](C)[C@H](NC(C)=O)C(=O)N[C@@](C)(CCC(C)(C)C)C(=O)O` [Example 3, (2S)-2-[(2S,3S)-2-acetamido-3-methylpentanamido]-2,5,5-trimethylhexanoic acid], the Kd is reported as 1.3 µM.
